Measurements published in US20250281424A1 (New York Blood Center, Inc, priority 2020, published 2025).
Where two headings read alike, the source gives them in different places.

Biological target: T1, human PF4 (Homo sapiens, UniProt P02776)
T1 construct: PF4 is a 70 amino acid, lysine-rich 7.8 kDa platelet-specific protein; made in house; host or cells: Escherichia coli BL21DE3 pLysS (pT7-7) and/or Drosophila S2 cells
T1 sequence (P02776 32-101): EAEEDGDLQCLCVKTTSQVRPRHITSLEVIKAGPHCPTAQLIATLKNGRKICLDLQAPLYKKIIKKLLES
Experiment: Inhibition of PF4 tetramer formation (BS3 cross-linking, SDS-PAGE)
Type: biochemical
Conditions: for inhibition at 5 µM: 5 μM inhibitor; for inhibition at 5 µM / inhibition at 10 µM / inhibition at 1 µM / inhibition at 3 µM: read-out: % inhibition of PF4 tetramer formation at single concentration of inhibitor; for inhibition at 10 µM: 10 μM inhibitor (column A); for inhibition at 1 µM: 1 μM inhibitor; for inhibition at 3 µM: 3 μM inhibitor (column A)
Method in brief: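 Recombinant human wild-type PF4 (E. coli-expressed, heparin-purified), 10 μg/ml in PBS, incubated with compound 15 min at 37° C or 60 min at room temperature, then cross-linked with 0.2 mM BS3 for 30 min at room temperature. Reducing 12% SDS-PAGE; bands quantified as % tetramer, trimer, dimer, monomer versus compound-free control.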

[1] = read-out: IC50 of PF4 tetramer formation inhibition

SMILES: C[C@@H]1CC[C@@H](C(=O)C2C(=O)c3ccc(C(=O)c4ccc5c(c4)C(=O)C(C(=O)[C@@H]4CC[C@@H](C)N4C(=O)OC(C)(C)C)C5=O)cc3C2=O)N1C(=O)OC(C)(C)C (stereo partly drawn) [Example 120B, tert-butyl (2S,5R)-2-(5-{2-[(2S,5R)-1-[(tert-butoxy)carbonyl]-5-methylpyrrolidine-2-carbonyl]-1,3-dioxo-2,3-dihydro-1H-indene-5-carbonyl}-1,3-dioxo-2,3-dihydro-1H-indene-2-carbonyl)-5-methylpyrrolidine-1-carboxylate]
- inhibition at 5 µM: 75%
- inhibition at 10 µM: 86%

SMILES: CC(C)(C)OC(=O)NCC(=O)C1C(=O)c2ccc(C(=O)c3ccc4c(c3)C(=O)C(C(=O)CNC(=O)OC(C)(C)C)C4=O)cc2C1=O (stereo not shown) [Example 173, tert-butyl N-(2-{5-[2-(2-{[(tert-butoxy)carbonyl]amino}acetyl)-1,3-dioxo-2,3-dihydro-1H-indene-5-carbonyl]-1,3-dioxo-2,3-dihydro-1H-inden-2-yl}-2-oxoethyl) carbamate]
- inhibition at 5 µM: 87%
- inhibition at 10 µM: 97%
- IC50 [1]: 2.2 µM

SMILES: CO[C@@H](C)C(=O)C1C(=O)c2ccc(S(=O)(=O)c3ccc4c(c3)C(=O)C(C(=O)[C@@H](C)OC)C4=O)cc2C1=O (stereo partly drawn) [Example 237, 2-[(2R)-2-methoxypropanoyl]-5-({2-[(2S)-2-methoxypropanoyl]-1,3-dioxo-2,3-dihydro-1H-inden-5-yl}sulfonyl)-2,3-dihydro-1H-indene-1,3-dione]
- inhibition at 1 µM: 30%
- inhibition at 3 µM: 37%

SMILES: CSCC[C@H](NC(=O)OC(C)(C)C)C(=O)C1C(=O)c2ccc(Oc3ccc4c(c3)C(=O)C(C(=O)[C@H](CCSC)NC(=O)OC(C)(C)C)C4=O)cc2C1=O (stereo partly drawn) [Example 270, tert-butyl N-[(2S)-1-[5-({2-[(2S)-2-{[(tert-butoxy)carbonyl]amino}-4-(methylsulfanyl)butanoyl]-1,3-dioxo-2,3-dihydro-1H-inden-5-yl}oxy)-1,3-dioxo-2,3-dihydro-1H-inden-2-yl]-4-(methylsulfanyl)-1-oxobutan-2-yl]carbamate]
- inhibition at 1 µM: 10%
- inhibition at 3 µM: 24%

SMILES: CC(C)OC/C(O)=C1/C(=O)c2ccc(C(=O)c3ccc4c(c3)C(=O)/C(=C(/O)COC(C)C)C4=O)cc2C1=O [Example 380, 5-{1,3-dioxo-2-[2-(propan-2-yloxy)acetyl]-2,3-dihydro-1H-indene-5-carbonyl}-2-[2-(propan-2-yloxy)acetyl]-2,3-dihydro-1H-indene-1,3-dione]
- inhibition at 1 µM: 17%
- inhibition at 3 µM: 30%

SMILES: CC(C)(C)OC(=O)N1CC2(CC(C(=O)C3C(=O)c4ccc(-c5ccc6c(c5)C(=O)C(C(=O)C5CC7(C5)CN(C(=O)OC(C)(C)C)C7)C6=O)cc4C3=O)C2)C1 (stereo not shown) [Example 211, tert-butyl 6-(2′-{2-[(tert-butoxy)carbonyl]-2-azaspiro[3.3]heptane-6-carbonyl}-1,1′,3,3′-tetraoxo-1H,1′H,2H,2′H,3H,3′H-[5,5′-biindene]-2-carbonyl)-2-azaspiro[3.3]heptane-2-carboxylate]
- inhibition at 5 µM: 76%
- inhibition at 10 µM: 95%
- IC50 [1]: 3.3 µM

SMILES: O=C(CC1CCCCC1)C1C(=O)c2ccc(S(=O)(=O)c3ccc4c(c3)C(=O)C(C(=O)CC3CCCCC3)C4=O)cc2C1=O (stereo not shown) [Example 148, 2-(2-cyclohexylacetyl)-5-{[2-(2-cyclohexylacetyl)-1,3-dioxo-2,3-dihydro-1H-inden-5-yl]sulfonyl}-2,3-dihydro-1H-indene-1,3-dione]
- inhibition at 5 µM: 59%
- inhibition at 10 µM: 90%

SMILES: COCCOCCNCC(=O)C1C(=O)c2ccc(C(=O)c3ccc4c(c3)C(=O)C(C(=O)CNCCOCCOC)C4=O)cc2C1=O (stereo not shown) [Example 393, 2-(2-{[2-(2-methoxyethoxy)ethyl]amino}acetyl)-5-[2-(2-{[2-(2-methoxyethoxy)ethyl]amino}acetyl)-1,3-dioxo-2,3-dihydro-1H-indene-5-carbonyl]-2,3-dihydro-1H-indene-1,3-dione]
- inhibition at 1 µM: 1%
- inhibition at 3 µM: 4%

SMILES: CC(C)(C)OC(=O)N[C@@H](C(=O)C1C(=O)c2ccc(C(=O)c3ccc4c(c3)C(=O)C(C(=O)[C@H](NC(=O)OC(C)(C)C)c3ccccc3)C4=O)cc2C1=O)c1ccccc1 (stereo partly drawn) [Example 170, tert-butyl N-[(1R)-2-(5-{2-[(2R)-2-{[(tert-butoxy)carbonyl]amino}-2-phenylacetyl]-1,3-dioxo-2,3-dihydro-1H-indene-5-carbonyl}-1,3-dioxo-2,3-dihydro-1H-inden-2-yl)-2-oxo-1-phenylethyl]carbamate]
- inhibition at 5 µM: 76%
- inhibition at 10 µM: 85%
- IC50 [1]: 3.4 µM

SMILES: CO[C@@H](C)C(=O)C1C(=O)c2ccc(Oc3ccc4c(c3)C(=O)C(C(=O)[C@H](C)OC)C4=O)cc2C1=O (stereo partly drawn) [Example 248, 2-[(2S)-2-methoxypropanoyl]-5-({2-[(2S)-2-methoxypropanoyl]-1,3-dioxo-2,3-dihydro-1H-inden-5-yl}oxy)-2,3-dihydro-1H-indene-1,3-dione]
- IC50: 3 µM
- inhibition at 1 µM: 26%
- inhibition at 3 µM: 56%

SMILES: O=C(NCC1CCS(=O)(=O)C1)C1C(=O)c2ccc(Oc3ccc4c(c3)C(=O)C(C(=O)NCC3CCS(=O)(=O)C3)C4=O)cc2C1=O (stereo not shown) [Example 367, N-[(1,1-dioxo-1λ^6-thiolan-3-yl)methyl]-5-[(2-{[(1,1-dioxo-1λ^6-thiolan-3-yl)methyl]carbamoyl}-1,3-dioxo-2,3-dihydro-1H-inden-5-yl)oxy]-1,3-dioxo-2,3-dihydro-1H-indene-2-carboxamide]
- inhibition at 1 µM: 30%
- inhibition at 3 µM: 77%

SMILES: COCCOCCNC(=O)C1C(=O)c2ccc(Oc3ccc4c(c3)C(=O)C(C(=O)NCCOCCOC)C4=O)cc2C1=O (stereo not shown) [Example 291, 5-({2-[hydroxy({[2-(2-methoxyethoxy)ethyl]amino})methyl]-1,3-dioxo-2,3-dihydro-1H-inden-5-yl}oxy)-N-[2-(2-methoxyethoxy)ethyl]-1,3-dioxo-2,3-dihydro-1H-indene-2-carboxamide]
- inhibition at 1 µM: 69%
- inhibition at 3 µM: 100%
- IC50 [1]: 1.29 µM

SMILES: O=C1c2ccc(S(=O)(=O)c3ccc4c(c3)C(=O)C(C(=O)C3CC3)C4=O)cc2C(=O)C1C(=O)C1CC1 (stereo not shown) [Example 402, 2-cyclopropanecarbonyl-5-[(2-cyclopropanecarbonyl-1,3-dioxo-2,3-dihydro-1H-inden-5-yl)sulfonyl]-2,3-dihydro-1H-indene-1,3-dione]
- inhibition at 1 µM: 24%
- inhibition at 3 µM: 28%

SMILES: CC(C)(C)OC(=O)N1CCSC1C(=O)C1C(=O)c2ccc(C(=O)c3ccc4c(c3)C(=O)C(C(=O)C3SCCN3C(=O)OC(C)(C)C)C4=O)cc2C1=O (stereo not shown) [Example 124, tert-butyl 2-[5-(2-{3-[(tert-butoxy)carbonyl]-1,3-thiazolidine-2-carbonyl}-1,3-dioxo-2,3-dihydro-1H-indene-5-carbonyl)-1,3-dioxo-2,3-dihydro-1H-indene-2-carbonyl]-1,3-thiazolidine-3-carboxylate]
- IC50 [1]: 6.3 µM

SMILES: CCOC(=O)CNC(=O)C1C(=O)c2ccc(C(=O)c3ccc4c(c3)C(=O)C(C(=O)NCC(=O)OCC)C4=O)cc2C1=O (stereo not shown) [Example 30, 5,5′-5,5′-carbonylbis([(1,3-dioxo-indane-2-carbonyl)-amino]-acetic acid ethyl ester)]
- inhibition at 5 µM: 12%
- inhibition at 10 µM: 58%
